The term IC50 denotes the concentration that gives 50% inhibition. One may read the Km as the concentration of substrate that gives half-maximal velocity.

Where a name gives a salt, the structure may show the parent alone. Read-outs that look alike come from different tables or passages of the source.

In one data set the target is T1, SLC22A24 (Homo sapiens, UniProt Q8N4F4).
T1 sequence (Q8N4F4 1-552): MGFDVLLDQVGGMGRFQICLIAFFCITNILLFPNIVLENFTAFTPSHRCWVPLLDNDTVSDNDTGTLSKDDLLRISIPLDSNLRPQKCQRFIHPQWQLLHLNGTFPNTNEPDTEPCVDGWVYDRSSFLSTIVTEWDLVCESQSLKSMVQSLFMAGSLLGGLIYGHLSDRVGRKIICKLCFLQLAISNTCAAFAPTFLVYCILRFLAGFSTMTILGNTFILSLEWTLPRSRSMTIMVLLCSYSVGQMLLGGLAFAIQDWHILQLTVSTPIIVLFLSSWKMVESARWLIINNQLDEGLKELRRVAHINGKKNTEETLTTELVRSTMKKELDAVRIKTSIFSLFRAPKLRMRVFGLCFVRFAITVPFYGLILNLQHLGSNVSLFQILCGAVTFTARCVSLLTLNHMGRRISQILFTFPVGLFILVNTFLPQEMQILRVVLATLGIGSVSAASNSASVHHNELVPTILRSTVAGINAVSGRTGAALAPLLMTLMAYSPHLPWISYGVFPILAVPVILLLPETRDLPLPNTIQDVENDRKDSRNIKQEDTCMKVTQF
In words: cell-based.

Substrate in data set [1]: C[C@]12CC[C@@H]3c4ccc(OS(=O)(=O)O)cc4CC[C@H]3[C@@H]1CCC2=O
In words: cells, lysate or membranes.

Substrate in data set [2]: C[C@H](CCC(=O)NCC(=O)O)[C@H]1CC[C@H]2[C@@H]3[C@H](O)C[C@@H]4C[C@H](O)CC[C@]4(C)[C@H]3C[C@H](O)[C@]12C
Kind of data set: cells, lysate or membranes. The class given is cell-based, Homo sapiens.

Substrate in data set [3]: C[C@]12CC[C@@H]3c4ccc(O)cc4CC[C@H]3[C@@H]1CC[C@@H]2O[C@@H]1O[C@H](C(=O)O)[C@@H](O)[C@H](O)[C@H]1O
Kind of data set: cells, lysate or membranes. It is filed as cell-based, Homo sapiens.

As to `C[C@H](CCC(=O)O)[C@H]1CC[C@H]2[C@@H]3[C@H](O)C[C@@H]4C[C@H](O)CC[C@]4(C)[C@H]3CC[C@]12C` [Chenodeoxycholic acid], the IC50 on SLC22A24 (read-out: IC50 [μM ± SD]) was found to be 2.6 ± 1 µM.

Take `O=C(O)CSc1nnc(Br)n1-c1ccc(C2CC2)c2ccccc12` [Lesinurad]: the IC50 on SLC22A24 (read-out: IC50 [μM ± SD]) is 13 ± 6.1 µM.

Regarding `CC(=O)[C@H]1CC[C@H]2[C@@H]3CC=C4C[C@@H](OS(=O)(=O)O)CC[C@]4(C)[C@H]3CC[C@]12C` [Pregnenolone sulfate], at SLC22A24, half-maximal inhibition (IC50) required 1.4 ± 0.1 µM.

Take `CC(=O)[C@H]1CC[C@H]2[C@@H]3CCC4=CC(=O)CC[C@]4(C)[C@H]3CC[C@]12C` [Progesterone]: the half-maximal inhibitory concentration (IC50) on SLC22A24 is 7.4 ± 3 µM.

On to `CN(CCOc1ccc(CC2SC(=O)NC2=O)cc1)c1ccccn1` (stereo not drawn) [Rosiglitazone], for which the half-inhibitory concentration (IC50) on SLC22A24 (read-out: IC50 [μM ± SD]) was 3.3 ± 1.4 µM.

Consider `C[C@H](CCC(=O)O)[C@H]1CC[C@H]2[C@@H]3[C@@H](O)C[C@@H]4C[C@H](O)CC[C@]4(C)[C@H]3CC[C@]12C` [Ursodeoxycholic acid], for which, at SLC22A24 (read-out: IC50 [μM ± SD]), the IC50 is 7.6 ± 1.2 µM.

B1: SLC22A24 (Homo sapiens) (protein)
chain: T1 sequence (Q8N4F4 1-552)
With B1, the Km in data set [1] was found to be 8.6 ± 0.3 µM; in data set [2], 33.4 ± 2.5 µM; in data set [3] it was 17.5 ± 0.2 µM.

The values are drawn from article PMC6760779, “Unraveling the functional role of the orphan solute carrier, SLC22A24 in the transport of steroid conjugates through metabolomic and genome-wide association studies” (PLoS Genetics, 2019).
